Entries after “also recorded” stand apart in the source; their conditions may differ. Where two headings read alike, the source gives them in different places.
Experiments:
[1] = test system: immortalized hepatocytes (Fa2N-4 or Ea1C-35); test: Reactive oxygen species in immortalized hepatocytes; assay type: cell-based; settings: for ROS formation: hepatocytes intoxicated with e.g. paracetamol (10 mM for 2 hours), DDC or BSO, simultaneous treatment at EC50 concentrations
Experimental: Tested hepatocytes are grown in 96-well plates in culture medium (DMEM supplemented with 10% FCS, Gibco) to 80% confluency in the presence of paracetamol, subsequently washed with HBSS and incubated in the dark with DHE (10-50 μM) for 10 minutes at 37° C. Cells are then washed twice with Hank's balanced salt solution (HBSS, Gibco) to remove excess dye. Fluorescence is monitored in a fluorescence microscope (Olympus, Hamburg, Germany).
To determineDCF fluorescence in a microplate reader (Tecan, Crailsheim, Germany), immortalized hepatocytes are grown in 96-well plates to 80% confluency in presence of paracetamol. The cells are then washed twice with Hank's balanced salt solution (HBSS, Gibco) and incubated in the dark with CM-H2DCFDA (8.5 μM) dissolved in HBSS containing N-co-nitro-L-arginine methyl ester (L-NAME, 10 μM) for 10 minutes at 37° C. to prevent the formation of NO. After several washes with HBSS to remove excess dye, fluorescence is monitored by using 480 nm excitation and 540 nm emission wavelength. DCF fluorescence is standardized to the number of viable cells using the Alamar Blue test according to the manufacturer's instructions (Biosource, Nivelles, Belgium). […] The absorbance is then measured at the wavelength of 580 nm.
Optionally, ROS production can be assessed by flow cytometric analysis of CM-H2DCFDA stained cells. The cells intoxicated with paracetamol are detached and harvested by trypsinisation, collected by centrifugation and resuspended in HBSS at a concentration of 1×10^6 cells/ml. Cells are then loaded with 8.5 μM CM-H2DCFDA for 15 minutes in the dark at 37° C. before stimulation. The DCF fluorescence is monitored by analyzing 10,000 cells using 480 nm excitation and 540 nm emission wavelengths in a flow cytometer (Partec, Muenster, Germany).
The hepatocytes are then washed once with HBSS (Hanks' Balanced Salt Solution, Gibco) and incubated with MitoQ in concentration range of 0.5 to 10 μM or the respective amount of DMSO (Sigma). After 15 min DCF is added to the cells (final concentration of 8 μM) and cells are incubated with the dye for 10 min. After loading the media is removed and fresh HBSS is added containing MitoQ and CoCl2 (100 μM).
After 3 subsequent washing the cells are equilibrated in plates containing 1 ml of 50 mmol/L HEPES (pH 7.4), 135 mmol/L NaCl, 1 mmol/L CaCl2, 1 mmol/L MgCl2, 5 mmol/L KCl, 5.5 mmol/L glucose, and 5 μmol/L lucigenin as the electron acceptor. The light reaction between superoxide and lucigenin is detected using a chemiluminescence reader (Lumistar, BMG laboratories, Germany). The chemiluminescence signal is expressed as average counts per minute and normalized to cell number as determined by cell counter (Casy Technology Instrument, Schärfe-System, Germany).

[2] = test system: mitochondria within isolated cells; settings: in vitro; cited from earlier work
[3] = cited from earlier work; for gross signs of toxicity: fed in drinking water two or three days, 500 μM or 1 mM MitoQ or MitoS, 500 μM MitoVit E; for safety of long term feeding to mice: long term basis, potentially therapeutically effective concentrations within brain, heart, liver, muscle
[4] = test system: carprofen- and DDC-intoxicated mice livers; test: Hepatocyte damage in mouse liver upon 3 days exposure to carprofen in combination with DDC (histology); assay type: in vivo; settings: carprofen 5 mg/kg + DDC 0.1% in diet, MitoQ 300 nmol/animal in PBS/1% DMSO
Excerpt: Controls receive 300 μPBS only.

[5] = test system: mice intoxicated with valproic acid; test: Long term (three weeks) valproic acid intoxication, liver histology; assay type: in vivo, mouse; settings: valproic acid 0.71% weight/volume for three weeks; 1.25 mg/kg daily i.p. or i.v.; compared to controls
Experimental: Chronic liver damage can be assessed in mice intoxicated with valproate (0.71% weight/volume) for up to 21 days when fatty degeneration of hepatocytes, activation of Kupffer cells, inflammation and hepatocyte necrosis can be detected (Raza M. 2000, Int J Tissue React., 22(1): 15-21).
In long term experiments by using mice intoxicated for three weeks with valproic acid (0.71% weight/volume), the presence (or absence) of cell damage in liver samples of treated animals is determined and compared to the corresponding control groups of animals.

[6] = test system: hemoxygenase 1 (HO-1); test: Western blot of hemoxygenase 1 expression in liver extracts of intoxicated mice; assay type: in vivo, mouse; settings: densitometry
Experimental: To evaluate hemoxygenase 1 (HO-1) protein expression know to be induced by oxidative stress (Suematsu M. and Ishimura Y., 2000, Hepatology, 31(1): 3-6) standard western blot analysis is performed using protein extracts derived from paracetamol- (or carprofen) intoxicated mice treated simultaneously for 1day (or 3 days) with MitoQ (diluted in 1% DMSO in PBS), vitamin E or just vehicle itself (see protocols in Example 3).
(§1) Liver tissues are resuspended in ice-cold RIPA-buffer (50 mM Tris-HCl pH 7.4, 250 mM NaCl, 0.1% SDS, 1% deoxycholate, 1% NP-40) supplemented with 2 μg/ml leupeptin, 2 μg/ml pepstatin, 2 μg/ml aprotinin, 1 mM phenylmethylsulfonylfluoride (PMSF), and 2 mM dithiothreitol followed by homogenization through sonication (2 bursts of 5 seconds) on ice. After incubation for 20 minutes on ice, the lysates are cleared by two centrifugational steps in a microcentrifuge at 13,000 rpm for 15 minutes at 4° C. and the supernatants are collected. Protein concentrations are determined by the Bradford assay (Biorad) using bovine serum albumin as a standard. Equal amounts of protein (typically 10-30 μg) are separated on a 12% SDS-PAGE gel and transferred electrophoretically to a polyvinylidene diflouride (PVDF) membrane (Hybond-P, Amersham) through Semidry-blotting (TE 70, Amersham). […]

[7] = test system: fatty acid binding protein (FABP); test: Western blot of fatty acid binding protein in liver extracts of intoxicated mice; assay type: in vivo, mouse; settings: drug-intoxicated (paracetamol or carprofen) animals; versus non intoxicated vehicle controls
Experimental: as §1, with “Amersham). The membrane is blocked for 1 hour at room temperature in blocking solution [5% milk in TBS-T (25 mM Tris-HCl pH 7.4, 137 mM NaCl, 3 mM KCl, comprising 0.1% Tween-20)] and incubated with the primary antibody solution (prepared in TBS-T/1% milk) at 4° C. overnight with agitation.” for “Amersham).”
Furthermore, the protein expression level(s) of fatty acid binding protein (FABP) representing a sensitive marker for hepatocyte damage (Monbaliu D. et al., 2005, Transplant Proc. 37(1):413-416) is determined.

[8] = test system: alanine- and aspartate aminotransferase; test: Serum liver enzymes (blood parameters) in intoxicated animals; assay type: in vivo, mouse; settings: compared to intoxicated control group
[9] = test system: paracetamol-intoxicated mice livers
Experimental: Mice (8 weeks old) are fed a standard diet. Paracetamol is administered by oral gavage (500 mg/kg of animal). Carprofen is given by intraperitoneal injection (three times every 24 hours) in combination with 0.1% DDC which is included in the diet.
Mice are sacrified at different time-points of intoxication by cervical dislocation and the livers are either immediately snap-frozen in methylbutane precooled with liquid nitrogen for immunofluorescence or fixed in 4% buffered formaldehyde for routine histology and immunohistochemistry.
To evaluate the impact of the antioxidants according to the invention on regression of morphological alterations in early stages of paracetamol-intoxicated mice livers, a group of animals are treated on day one with MitoQ (a mixture of MitoQuinol [10-(3,6-dihydroxy-4,5-dimethoxy-2 methylphenyl)decyl]triphenylphosphonium bromide and MitoQuinone [10-(4,5-dimethoxy-2-methyl-3,6-dioxo-1,4-cyclohexadien-1-yl)decyl]-triphenylphosphonium bromide (provided by Prof. Albin Hermetter, TU Graz, AT), diluted with PBS/1% DMSO in three different concentrations (200 nM, 300 nM and 400 nM) intraperitoneally with maximum administration volume 100 μl (controls receive 100 μl PBS/1% DMSO only). For injections, MitoQ is dissolved in PBS supplemented with sufficient DMSO (preferably 1%) to maintain solubility of antioxidants. Intraperitoneal or i.v. (tail vein) injections are given to pairs of mice and compared with vehicle-injected controls. These correspond to maximum tolerated dose of 20 mg of MitoQ/kg/day (750 nmol) according to Smith R. A. J et al., 2003, PNAS, 100 (9): 5407-5412.
On the second day MitoQ treatment is continued, additionally mice are intoxicated with 500 mg/kg paracetamol diluted with PBS po (maximum administration volume is 300 μl).

[10] = test system: DDC-intoxicated mouse liver; test: Hepatocyte damage in mouse liver upon 3 days exposure to DDC (0.1%), MitoQ versus vitamin E (histology); settings: MitoQ 12 mg/kg peritoneally, vitamin E 100 mg/kg subcutaneously
Experimental: FIGS. 3a and 3b: Comparison of MitoQ (12 mg/kg of animal;given peritoneally) and vitamin E (100 mg/kg of animal, applied subcutneously) effect on the degree of hepatocyte damage in mouse liver upon short term (3 days) exposure to DDC (0.1%)
Controls receive 300 μPBS only. Vitamin E is given subcutaneously in the same intervals as MitoQ at doses of 40 to 100 mg/kg dissolved in corn oil/PBS (1:5).

[11] = concentration used for treatment of intoxicated immortalized hepatocytes, read-out: EC50
[12] = paracetamol 500 mg/kg, 1 day, MitoQ 300 nmol/animal in PBS/1% DMSO, simultaneous, 24 hours pretreatment

Molecule	accumulation by mitochondria [2]	gross signs of toxicity [3]	safety of long term feeding to mice [3]	reduction of liver damage by serum liver enzymes (alanine- and aspartate aminotransferase) [8]	EC50 [1, 11]	ROS formation [1]	inflammatory cells [10]	liver morphology [10]	protoporphyrin accumulation in the bile ducts [10]	further results
CCOC(=O)C1=C(C)NC(C)=C(C(=O)OCC)C1C [DDC]	–	–	–	–	–	–	–	–	–	EC50 ([1]; intoxicant, hepatocytes incubated up to 72 hours in culture medium (DMEM and 10% FCS)): 50 μg/ml of medium
Cc1c(C)c2c(c(C)c1O)CCC(C)(CC[P+](c1ccccc1)(c1ccccc1)c1ccccc1)O2 (stereo not drawn) [MitoVit E, [2-(3,4-dihydro-6-hydroxy-2,5,7,8-tetramethyl-2H-1-benzopyran-2-yl)ethyl]-triphenylphosphonium bromide]	rapidly and selectively accumulated	without any gross signs of toxicity	could be fed safely	–	–	–	–	–	–	maximum tolerated dose ([3]; 500 μM in drinking water): 60 mg/kg/day
C[P+](c1ccccc1)(c1ccccc1)c1ccccc1 [TPMP, reference compound]	–	–	could be fed safely	–	–	–	–	–	–	–
MitoQ	rapidly and selectively accumulated	without any gross signs of toxicity	could be fed safely	significant reduction	1 µM	significant reduction	absent	restores normal liver morphology	persists	inflammatory cells [4]: absent; liver morphology [4]: restores normal liver morpohology; degree of cell damage [5]: greatly reduced; HO-1 protein expression ([6]; compared to paracetamol intoxicated group of animals): significant reduction; HO-1 protein expression ([6]; compared to vitamin E treated mice): less significant reduction; FABP protein expression [7]: reaches almost control mice FABP protein expression values; also recorded: reach almost control mice FABP expression values; blood congestion in the sinusoids [9, 12]: reduces blood congestion in the sinusoids; necrotic hepatocytes [9, 12]: only few single necrotic cells are seen; liver architecture (strands of hepatocytes bordered by sinusoids) ([9]; short-term experiments overall (paracetamol; carprofen + DDC), compared to vitamin E or untreated animals): is again visible
vitamin E [reference compound]	–	–	–	less significant effect	10 µM	significant reduction	still present in the periportal area	only partially restores normal liver morphology	persists	–

— patent US20070161609A1, “Use of mitochondrially targeted antioxidant in treatment and prevention of drug-induced liver disease” (priority 2006, published 2007)
